Source: patent US20140271723A1 (priority 2013, published 2014)

Legend:
CRSBP-1 = CRSBP-1 (Mus musculus, UniProt Q8BHC0); settings: cited from earlier work
[1] = test system: lymphatic endothelial cell (LEC) monolayers; settings: cited from earlier work
pseudorabies virus (PRV) = test system: pseudorabies virus (PRV); set-up: species or system pigs; settings: pig, in vivo
[2] = test system: lymphatic intercellular junctions; settings: mouse, in vivo; cited from earlier work

Sequence of CRSBP-1 (Q8BHC0 24-318): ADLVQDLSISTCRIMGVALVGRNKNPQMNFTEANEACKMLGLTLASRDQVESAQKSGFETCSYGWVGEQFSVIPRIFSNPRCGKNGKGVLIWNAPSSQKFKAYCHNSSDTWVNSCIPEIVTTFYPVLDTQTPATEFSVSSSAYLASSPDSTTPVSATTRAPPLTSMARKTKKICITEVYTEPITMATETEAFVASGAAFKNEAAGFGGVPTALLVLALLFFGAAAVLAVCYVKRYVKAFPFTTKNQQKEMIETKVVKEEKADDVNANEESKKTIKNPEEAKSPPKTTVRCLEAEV

Substance | binding to CRSBP-1 (CRSBP-1) | disruption of VE-cadherin-mediated discontinuous intercellular adhesion and opening of intercellular junctions [1] | increase in serum antibody titer as compared to vaccine only (pseudorabies virus (PRV)) | activity in control experiments as compared to VEGF peptide and PDGF peptide [2]
KKSVRGKGKGQKRKRKKSRYKSWSV [VEGF peptide] | high affinity | induce disruption | – | –
YVRVRRPPKGKHRKFKHTH [PDGF peptide] | high affinity | induce disruption | ~4 fold | –
polyarginine | – | – | – | very weak activity
polylysine | – | – | – | very weak activity
